Experimental data: ChEMBL document CHEMBL3588773, “Volume of Distribution in Drug Design” (J Med Chem, 2015)

Legend:
Heat shock protein HSP90 = Heat shock protein HSP90 (Homo sapiens, UniProt P07900+P08238); experiment: Inhibition of human recombinant HSP90 by scintillation proximity competition binding assay; assay type: protein assay
[1] = Volume of distribution at steady state in Sprague-Dawley rat at 2.5 mg/kg; assay type: ADME, organism-based; settings: in vivo, read-out: Vdss
[2] = Lipophilicity, log P of the compound; settings: octanol/water
[3] = Distribution coefficient, log D of the compound; assay type: physicochemical; settings: octanol/water
Homo sapiens [4] = species: Homo sapiens; experiment: Unbound volume of distribution at steady state in human; assay type: ADME, organism-based; settings: in vivo
Homo sapiens [5] = species: Homo sapiens; experiment: Unbound intrinsic clearance in human; assay type: ADME, organism-based; settings: in vivo
[6] = Volume of distribution at steady state in human; settings: in vivo
Plasma = experiment: (§1) Unbound fraction in human plasma; assay type: ADME, cell-free
[7] = Dissociation constant of the compound; assay type: physicochemical
[8] = as §1; assay type: ADME, cell-free
[9] = Volume of distribution at steady state in mouse; assay type: ADME, organism-based; settings: in vivo, read-out: Vdss
[10] = Volume of distribution at steady state in wild type mouse; assay type: ADME, organism-based; settings: in vivo, read-out: Vdss

## CC(C)(CC(F)(F)F)NC(=O)N1Cc2nc(N)nc(-c3c(Cl)cc(Cl)cc3OCCn3cccn3)c2C1
Heat shock protein HSP90
  Ki: 9.7 nM
[1]
  Vd: 2 L/kg

## CC(C)(CC(F)(F)F)NC(=O)N1Cc2nc(N)nc(-c3c(Cl)cc(Cl)cc3OCCn3cc(F)cn3)c2C1
Heat shock protein HSP90
  Ki: 2.1 nM
[1]
  Vd: 13 L/kg

## CC(F)(F)CC(C)(C)NC(=O)N1Cc2nc(N)nc(-c3c(Cl)cc(Cl)cc3OCCn3cccn3)c2C1
Heat shock protein HSP90
  Ki: 6.6 nM
[1]
  Vd: 1.8 L/kg

## CC(F)(F)CC(C)(C)NC(=O)N1Cc2nc(N)nc(-c3c(Cl)cc(Cl)cc3OCCn3cc(F)cn3)c2C1
Heat shock protein HSP90
  Ki: 1.7 nM
[1]
  Vd: 10 L/kg

## CC(C)(NC(=O)N1Cc2nc(N)nc(-c3c(Cl)cc(Cl)cc3OCCn3cccn3)c2C1)C12CC(C1)C2
Heat shock protein HSP90
  Ki: 7.3 nM
[1]
  Vd: 1.8 L/kg

## CC(C)(NC(=O)N1Cc2nc(N)nc(-c3c(Cl)cc(Cl)cc3OCCn3cc(F)cn3)c2C1)C12CC(C1)C2
Heat shock protein HSP90
  Ki: 3.3 nM
[1]
  Vd: 11 L/kg

## CCOC(=O)C1=C(COCCN)NC(C)=C(C(=O)OC)C1c1ccccc1Cl (stereo not given) [AMLODIPINE]
[2]
  logP: 3.3
[3]; read-out: logD
  logD: 1.2

## CC(C)NCC(O)COc1ccc(CCOCC2CC2)cc1 (stereo not given) [BETAXOLOL]
Homo sapiens [4]
  Vduss: 13 L/kg
[3]
  logD: 1.1
Homo sapiens [5]
  CL free: 13 mL/min/kg

## CN(C)CCC(c1ccc(Cl)cc1)c1ccccn1 (stereo not given) [CHLORPHENIRAMINE]
[6]
  Vd: 10 L/kg
[2]
  logP: 3.4
Homo sapiens [4]
  Vduss: 178 L/kg
[3]; read-out: logD
  logD: 1.5
Plasma
  Fu: 0.056

## OC(Cn1cncn1)(Cn1cncn1)c1ccc(F)cc1F [FLUCONAZOLE]
Homo sapiens [4]
  Vduss: 0.84 L/kg

## CNCCC(Oc1ccc(C(F)(F)F)cc1)c1ccccc1 (stereo not given) [FLUOXETINE]
[6]
  Vd: 4.3 L/kg
Homo sapiens [4]
  Vduss: 71 L/kg
[7]
  pKa: 10.5
[8]
  fraction unbound: 0.06

## O=C(CCCN1CCC(O)(c2ccc(Cl)cc2)CC1)c1ccc(F)cc1 [HALOPERIDOL]
[9]
  Vd: 0.6 L/kg

## COc1ccc2c(c1)c(CC(=O)O)c(C)n2C(=O)c1ccc(Cl)cc1 [INDOMETHACIN]
Homo sapiens [4]
  Vduss: 9.6 L/kg
[3]; read-out: logD
  logD: 0.7
Plasma
  Fu: 0.01

## CC(C(=O)O)c1cccc(C(=O)c2ccccc2)c1 (stereo not given) [KETOPROFEN]
[2]
  logP: 2.9
[3]; read-out: logD
  logD: 0.2

## COCCc1ccc(OCC(O)CNC(C)C)cc1 (stereo not given) [METOPROLOL]
Homo sapiens [4]
  Vduss: 4 L/kg
[3]; read-out: logD
  logD: -0.1
Homo sapiens [5]
  CL free: 33 mL/min/kg

## COCCOC(=O)C1=C(C)NC(C)=C(C(=O)OC(C)C)C1c1cccc([N+](=O)[O-])c1 (stereo not given) [NIMODIPINE]
[2]
  logP: 4.2

## CC[C@H](C)C(=O)O[C@H]1C[C@H](O)C=C2C=C[C@H](C)[C@H](CC[C@@H](O)C[C@@H](O)CC(=O)O)[C@H]21 [PRAVASTATIN]
[10]
  Vd: 0.27 L/kg

## CCC(C)(C)C(=O)O[C@H]1C[C@@H](C)C=C2C=C[C@H](C)[C@H](CC[C@@H]3C[C@@H](O)CC(=O)O3)[C@H]21 [SIMVASTATIN]
[10]
  Vd: 14 L/kg

## O=c1n(CCCN2CCN(c3cccc(Cl)c3)CC2)nc2ccccn12 [TRAZODONE]
[9]
  Vd: 18 L/kg
